System: Alternaria
Test: Total Alternaria polypeptides in nasal secretions of CRS patients before and after treatment (competitive immunoassay)
Format: in vivo, human
Conditions: nasal secretion supernatants, change from baseline after treatment, N=6, paired samples
Protocol: Nasal secretions were obtained under endoscopic guidance using a sterile sinus secretion collector (Xomed Surgical Produces, Jacksonville, Fla.) from CRS patients before and after treatment with either placebo or amphotericin B. Each secretion specimen was extracted by adding twice the volume of 0.9% NaCl, vortexing, and centrifugation. The supernatants were stored at −20° C. To monitor changes in fungal antigen burden with treatment, total Alternaria polypeptides in nasal secretions were immunochemically quantitated essentially as described for latex polypeptides. Briefly, samples and a standard extract from Alternaria alternata competed with solid-phase Alternaria alternata polypeptides for rabbit anti-Alternaria IgG antibodies (ALK-Abello, Round Rock, Tex.). Radiolabeled, affinity-purified, goat anti-rabbit IgG was used for detection. The results are expressed as mass polypeptide per mL nasal secretion supernatants. The detection limit of the assay was 12 ng/mL for total Alternaria polypeptides. Sufficient quantities of mucus were not available to perform all the assays for each patient. The analyses were performed based on the availability of paired samples.

With `C[C@@H]1[C@H](O)[C@@H](C)/C=C/C=C/C=C/C=C/C=C/C=C/C=C/[C@H](O[C@@H]2O[C@H](C)[C@@H](O)[C@H](N)[C@@H]2O)C[C@@H]2O[C@](O)(C[C@@H](O)C[C@@H](O)[C@H](O)CC[C@@H](O)C[C@@H](O)CC(=O)O[C@H]1C)C[C@H](O)[C@H]2C(=O)O` [Amphotericin B, amphotericin B] the “Alternaria μg/mL, median change after treatment” value was -0.30 µg/mL and the “Alternaria μg/mL, range for change after treatment” value was -4.64 to 3.21 µg/mL.
